Laboratory results taken from patent publication US20050196744A1 (priority 2004, published 2005).
“And” between values parts separate entries of the source, which are not always exact repeats. Equal entries are not always repeated. Marks after values point to notes of the source that are not given here.

T1: D79E DAT (Rattus norvegicus, UniProt P23977, D79E)
T1 construct: expressed in transfected cells; host or cells: CHO-K1, stably transfected; intact attached monolayers
T1 sequence (P23977 1-619 D79E): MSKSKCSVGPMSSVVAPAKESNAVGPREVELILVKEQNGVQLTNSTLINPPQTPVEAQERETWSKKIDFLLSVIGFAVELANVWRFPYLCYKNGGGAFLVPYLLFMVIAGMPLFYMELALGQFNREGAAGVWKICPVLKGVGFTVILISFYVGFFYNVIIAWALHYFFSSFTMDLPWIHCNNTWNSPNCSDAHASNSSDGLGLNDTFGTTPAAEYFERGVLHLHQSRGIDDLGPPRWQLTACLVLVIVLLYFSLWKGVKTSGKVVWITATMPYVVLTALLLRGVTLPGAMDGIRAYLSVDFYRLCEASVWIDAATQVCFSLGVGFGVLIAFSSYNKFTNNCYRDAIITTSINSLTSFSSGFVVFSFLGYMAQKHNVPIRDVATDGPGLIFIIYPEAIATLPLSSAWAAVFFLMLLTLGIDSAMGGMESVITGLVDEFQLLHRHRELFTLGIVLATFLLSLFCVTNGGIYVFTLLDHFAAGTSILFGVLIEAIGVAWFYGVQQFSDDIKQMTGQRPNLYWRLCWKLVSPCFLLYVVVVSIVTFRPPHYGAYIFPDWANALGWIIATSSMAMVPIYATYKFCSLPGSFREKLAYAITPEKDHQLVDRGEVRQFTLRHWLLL


Key:
WT DAT [1] = molecular target: T2, WT DAT (Rattus norvegicus, UniProt P23977); assay: [3H]-dopamine uptake and uptake inhibition, CHO cells stably expressing WT DAT; assay type: cell-based
T2 construct: expressed in transfected cells; host or cells: CHO-K1, stably transfected (G-418 selection); intact monolayers in A1 and A3, membranes in A5

D79E DAT [2] = molecular target: T1, D79E DAT; assay: [3H]-dopamine uptake and uptake inhibition, CHO cells stably expressing D79E DAT; assay type: cell-based
D79E DAT [3] = molecular target: T1, D79E DAT; assay: [3H]-WIN 35,428 binding / displacement at CHO cells stably expressing D79E DAT; conditions: for loss of binding affinity ([3H]-WIN 35,428 displacement) caused by the D79E mutation (D79E vs WT DAT): CHO cells, comparison of Ki values
Method: (§1) Ligand binding assays. […] Nonradioactive competitor concentrations were as indicated above for uptake inhibition. […] Membranes were aspirated with a Brandel harvester onto GF/B glass-fiber filter paper, washed with 3×5 ml cold binding buffer, and the filters measured for radioactivity via scintillation counting. For all binding assays, data were analyzed with the GraphPad Prism 2.0 software to obtain Kd, Ki and Bmax values.

WT DAT [4] = molecular target: T2, WT DAT; assay: [3H]-WIN 35,428 binding / displacement at intact CHO cells stably expressing WT DAT
Method: as §1

intact naïve CHO cells = assay: [3H]-WIN 35,428 low affinity site of intact naïve CHO cells; assay type: binding; conditions: intact naïve (untransfected) CHO cells
Method: To further address this steric issue, dihydroxy-benzylamine (DHBA) was employed as a potential DAT substrate. […] Ligand binding assays were conducted under conditions that matched those for assaying uptake inhibition.

[5] = substrate: NCCc1ccc(O)c(O)c1; assay: cells, lysate or membranes; conditions: 22° C., KRH buffer, mean ± standard error, pH 7.3
[6] = CHO cells, comparison of Ki values
[7] = DAT substrates, CHO cells, WT DAT, 22° C., KRH buffer, mean ± standard error, read-out: Ki, inhibition of [3H]-DA uptake
[8] = DAT substrates, CHO cells, D79E DAT, 22° C., KRH buffer, mean ± standard error, read-out: Ki, inhibition of [3H]-DA uptake
[9] = DAT substrates, intact CHO cells, WT DAT, 1 nM [3H]-WIN 35,428, 15 min, 22° C., read-out: Ki, [3H]-WIN inhibition (binding affinity)
[10] = DAT substrates, intact CHO cells, D79E DAT, 1 nM [3H]-WIN 35,428, 15 min, 22° C., read-out: Ki, [3H]-WIN inhibition (binding affinity)

Molecule	loss of binding affinity ([3H]-WIN 35,428 displacement) caused by the D79E mutation (D79E vs WT DAT) (D79E DAT [3])	loss of dopamine uptake inhibition potency caused by the D79E mutation (D79E vs WT DAT) (D79E DAT [2]; [6])	Ki (D79E DAT [3]) [µM]	Ki (WT DAT [1]; [7]) [µM]	Ki (D79E DAT [2]; [8]) [µM]	Ki (WT DAT [4]; [9])	Ki (D79E DAT [3]; [10]) [µM]	also measured
NCCc1ccc(O)c(O)c1 [Dopamine, dopamine]	almost identical	–	–	–	–	–	–	Vmax/Bmax (dopamine turnover rate) (WT DAT [1]; WT DAT CHO cells, Bmax from [3H]-WIN 35,428 saturation binding): 34.1 min⁻¹; Vmax of dopamine uptake (WT DAT [1]; WT DAT CHO cells, dopamine at 0.1 Ci/mmol, 5 min, 22° C.): 348 ± 22 pmol/mg/min; WT DAT turnover rate higher than that for D79E DAT CHO cells (WT DAT [1]; [3H]-dopamine uptake kinetics, CHO cells): 7 fold; Vmax/Bmax (dopamine turnover rate) (D79E DAT [2]; D79E DAT CHO cells, Bmax from [3H]-WIN 35,428 saturation binding): 7.9 min⁻¹; Vmax of dopamine uptake (D79E DAT [2]; D79E DAT CHO cells, dopamine at 0.1 Ci/mmol, 5 min, 22° C.): 48 ± 4^a pmol/mg/min; decrease in DAT dopamine turnover rate rendered by the D79E mutation (D79E DAT [2]; corrected for fewer transporters at the cell surface): approximately 4 fold
OC1(c2ccc(Cl)cc2)c2ccccc2C2=NCCN21 (stereo not shown) [Mazindol, mazindol]	–	no effect	0.041 ± 0.003	–	–	–	–	Ki (WT DAT [1]): 0.031 ± 0.003 µM; Ki (D79E DAT [2]): 0.047 ± 0.004 µM; Ki (WT DAT [4]): 0.013 ± 0.001 µM
COC(=O)C(c1ccccc1)C1CCCCN1 (stereo not shown) [Methylphenidate, methylphenidate]	–	no effect	0.167 ± 0.002	–	–	–	–	Ki (D79E DAT [2]): 0.161 ± 0.009 µM
NC[C@H](O)c1ccc(O)c(O)c1 [Norepinephrine]	2 fold	equally effective	5.5 ± 0.7	5.4	5.2 ± 0.3	2.3 µM	–	–
COC(=O)[C@H]1[C@@H](c2ccc(F)cc2)C[C@@H]2CC[C@H]1N2C [WIN 35,428]	–	no effect	–	–	–	–	–	specific binding of [3H]-WIN 35,428 (D79E DAT [3]; D79E DAT, suspended cells or cell membrane preparation in KRH uptake buffer): undetectable; Kd (intact naïve CHO cells): > 1 µM
NCCc1cccc(O)c1 [m-Tyramine]	–	unchanged	–	1.4 ± 0.3	1.2 ± 0.3	1 µM	6.6 ± 1.2	–
NCCc1ccc(O)cc1 [p-Tyramine]	–	2 fold	–	1.7 ± 0.1	3.3 ± 0.4	0.8 µM	4.3 ± 0.5	–
dihydroxybenzylamine [DHBA]	identical	–	–	5760 ± 540	782 ± 22	800 µM and 801 µM	791 ± 27	Ki at D79E DAT relative to the Ki value for dopamine binding at WT DAT (higher) (D79E DAT [2]): 377 fold; Ki for uptake inhibition at D79E DAT relative to the dopamine Km value at WT DAT (higher) (D79E DAT [2]): 460 fold; potency in inhibiting [3H]-dopamine uptake, higher at D79E DAT compared to WT DAT (D79E DAT [2]; [6]): 7 fold; more potent as inhibitor of [3H]-WIN 35,428 binding than as inhibitor of [3H]-dopamine uptake at WT DAT (WT DAT [4]; intact CHO cells stably expressing WT DAT): 7 fold; potency of inhibition of [3H]-WIN 35,428 binding compared with potency for inhibition of [3H]-dopamine uptake at D79E DAT (D79E DAT [3]; intact CHO cells, D79E DAT): agrees well
WT DAT (Rattus norvegicus) (protein) MSKSKCSVGPMSSVVAPAKESNAVGPREVELILVKEQNGVQLTNSTLINPPQTPVEAQERETWSKKIDFLLSVIGFAVDLANVWRFPYLCYKNGGGAFLVPYLLFMVIAGMPLFYMELALGQFNREGAAGVWKICPVLKGVGFTVILISFYVGFFYNVIIAWALHYFFSSFTMDLPWIHCNNTWNSPNCSDAHASNSSDGLGLNDTFGTTPAAEYFERGVLHLHQSRGIDDLGPPRWQLTACLVLVIVLLYFSLWKGVKTSGKVVWITATMPYVVLTALLLRGVTLPGAMDGIRAYLSVDFYRLCEASVWIDAATQVCFSLGVGFGVLIAFSSYNKFTNNCYRDAIITTSINSLTSFSSGFVVFSFLGYMAQKHNVPIRDVATDGPGLIFIIYPEAIATLPLSSAWAAVFFLMLLTLGIDSAMGGMESVITGLVDEFQLLHRHRELFTLGIVLATFLLSLFCVTNGGIYVFTLLDHFAAGTSILFGVLIEAIGVAWFYGVQQFSDDIKQMTGQRPNLYWRLCWKLVSPCFLLYVVVVSIVTFRPPHYGAYIFPDWANALGWIIATSSMAMVPIYATYKFCSLPGSFREKLAYAITPEKDHQLVDRGEVRQFTLRHWLLL	–	–	–	–	–	–	–	Km ([5]; other: CHO cells stably expressing WT DAT): 1.7 ± 0.3 µM
D79E DAT (Rattus norvegicus; D79E) (protein) MSKSKCSVGPMSSVVAPAKESNAVGPREVELILVKEQNGVQLTNSTLINPPQTPVEAQERETWSKKIDFLLSVIGFAVELANVWRFPYLCYKNGGGAFLVPYLLFMVIAGMPLFYMELALGQFNREGAAGVWKICPVLKGVGFTVILISFYVGFFYNVIIAWALHYFFSSFTMDLPWIHCNNTWNSPNCSDAHASNSSDGLGLNDTFGTTPAAEYFERGVLHLHQSRGIDDLGPPRWQLTACLVLVIVLLYFSLWKGVKTSGKVVWITATMPYVVLTALLLRGVTLPGAMDGIRAYLSVDFYRLCEASVWIDAATQVCFSLGVGFGVLIAFSSYNKFTNNCYRDAIITTSINSLTSFSSGFVVFSFLGYMAQKHNVPIRDVATDGPGLIFIIYPEAIATLPLSSAWAAVFFLMLLTLGIDSAMGGMESVITGLVDEFQLLHRHRELFTLGIVLATFLLSLFCVTNGGIYVFTLLDHFAAGTSILFGVLIEAIGVAWFYGVQQFSDDIKQMTGQRPNLYWRLCWKLVSPCFLLYVVVVSIVTFRPPHYGAYIFPDWANALGWIIATSSMAMVPIYATYKFCSLPGSFREKLAYAITPEKDHQLVDRGEVRQFTLRHWLLL	–	–	–	–	–	–	–	Km ([5]; other: CHO cells stably expressing D79E DAT): 2.3 ± 0.3^ μM
